Experimental data published in PubChem BioAssay AID256 (DTP/NCI, 2004).
“And” between values parts separate entries of the source, which are not always exact repeats. Equal entries are not always repeated. Toxic doses and inconclusive results are not listed. How the source made its calls: active means survival T/C of 150% or more; inactive means T/C below 125% in these data.

System: CD2F1 mice, L1210 leukemia ip, survival T/C
Test: NCI In Vivo Anticancer Drug Screen. Data for tumor model L1210 Leukemia (intraperitoneal) in CD2F1 (CDF1) mice
Conditions: higher = longer survival
In short: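 In this screen, transplantable tumors were grown in mice given either the compound or its vehicle. Results were expressed as the treated measurement relative to the control measurement.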

[1] = endpoint: mean survival time, dose: 100.0 mg/kg/injection, schedule: Q04DX003 (ip), vehicle: saline with Tween-80
[2] = endpoint: mean survival time, dose: 200.0 mg/kg/injection, schedule: Q04DX003 (ip), vehicle: saline with Tween-80
[3] = endpoint: mean survival time, dose: 400.0 mg/kg/injection, schedule: Q04DX003 (ip), vehicle: saline with Tween-80
[4] = endpoint: mean survival time, dose: 100.0 mg/kg/injection, schedule: Q01DX009 (ip), vehicle: saline with Tween-80
[5] = endpoint: mean survival time, dose: 200.0 mg/kg/injection, schedule: Q01DX009 (ip), vehicle: saline with Tween-80
[6] = endpoint: mean survival time, dose: 400.0 mg/kg/injection, schedule: Q01DX009 (ip), vehicle: saline with Tween-80
[7] = endpoint: mean survival time, dose: 12.5 mg/kg/injection, schedule: Q01DX009 (ip), vehicle: saline with Tween-80
[8] = endpoint: mean survival time, dose: 25.0 mg/kg/injection, schedule: Q01DX009 (ip), vehicle: saline with Tween-80
[9] = endpoint: mean survival time, dose: 50.0 mg/kg/injection, schedule: Q01DX009 (ip), vehicle: saline with Tween-80
[10] = endpoint: mean survival time, dose: 100.0 mg/kg/injection, schedule: Q04DX003 (ip), vehicle: saline
[11] = endpoint: mean survival time, dose: 200.0 mg/kg/injection, schedule: Q04DX003 (ip), vehicle: saline
[12] = endpoint: mean survival time, dose: 400.0 mg/kg/injection, schedule: Q04DX003 (ip), vehicle: saline

Measured: T/C

Cn1c(=O)[nH]c2nc(-c3ccccc3)[nH]c2c1=O
inactive: endpoint: mean survival time, dose: 12.5 mg/kg/injection, schedule: Q01DX005 (ip), vehicle: other 89 % of control | endpoint: mean survival time, dose: 25.0 mg/kg/injection, schedule: Q01DX005 (ip), vehicle: other 87 % of control | endpoint: mean survival time, dose: 50.0 mg/kg/injection, schedule: Q01DX005 (ip), vehicle: other 86 % of control | endpoint: mean survival time, dose: 100.0 mg/kg/injection, schedule: Q01DX005 (ip), vehicle: other 86 % of control | endpoint: mean survival time, dose: 200.0 mg/kg/injection, schedule: Q01DX005 (ip), vehicle: other 87 % of control

CCOC(=O)C(C(=O)OCC)C(=O)C(C)C
inactive: [1] 93 % of control | [2] 97 % of control | [3] 95 % of control

CC(NC(=O)OCc1ccccc1)C(=O)O (stereo unspecified)
inactive: [4] 97 % of control | [1] 100 % of control | [5] 94 % of control | [2] 105 % of control | [3] 103 % of control

CN(C)/C=N/N=C1c2ccccc2-c2ccccc21
inactive: [4] 93 % of control | [1] 100 % of control | [5] 98 % of control | [2] 94 % of control | [6] 90 % of control | [3] 101 % of control

CS(=O)(=O)OCCN(CCOS(C)(=O)=O)c1cccc(Cl)c1
inactive: endpoint: mean survival time, dose: 2.0 mg/kg/injection, schedule: Q01DX010 (ip), vehicle: saline 112 % of control | endpoint: mean survival time, dose: 4.0 mg/kg/injection, schedule: Q01DX010 (ip), vehicle: saline 112 % of control | endpoint: mean survival time, dose: 4.0 mg/kg/injection, schedule: Q01DX015 (ip), vehicle: saline 116 % of control | endpoint: mean survival time, dose: 8.0 mg/kg/injection, schedule: Q01DX015 (ip), vehicle: saline 119 % of control
active: endpoint: mean survival time, dose: 8.0 mg/kg/injection, schedule: Q01DX010 (ip), vehicle: saline 150 % of control

Cc1ccc(OC(=O)Nc2cccc3ccccc23)cc1C
inactive: endpoint: mean survival time, dose: 100.0 mg/kg/injection, schedule: Q04DX002 (ip), vehicle: saline with Tween-80 95 % of control | endpoint: mean survival time, dose: 200.0 mg/kg/injection, schedule: Q04DX002 (ip), vehicle: saline with Tween-80 91 % of control

CC(c1ccccc1)n1ccnc1CO (stereo unspecified)
inactive: [7] 96 % of control | [8] 104 % of control | [9] 96 % of control and 102 % of control | [4] 91 % of control | [5] 98 % of control

CCn1c(-c2ccc(OC(C)=O)cc2)c(C)c2cc(OC(C)=O)ccc21
inactive: endpoint: median survival time, dose: 25.0 mg/kg/injection, schedule: Q01DX009 (ip), vehicle: Klucel (hydroxypropylcellulose) (HPC) 107 % of control | endpoint: median survival time, dose: 50.0 mg/kg/injection, schedule: Q01DX009 (ip), vehicle: Klucel (hydroxypropylcellulose) (HPC) 102 % of control | endpoint: median survival time, dose: 100.0 mg/kg/injection, schedule: Q01DX009 (ip), vehicle: Klucel (hydroxypropylcellulose) (HPC) 96 % of control | endpoint: median survival time, dose: 200.0 mg/kg/injection, schedule: Q01DX009 (ip), vehicle: Klucel (hydroxypropylcellulose) (HPC) 102 % of control | endpoint: median survival time, dose: 400.0 mg/kg/injection, schedule: Q01DX009 (ip), vehicle: Klucel (hydroxypropylcellulose) (HPC) 90 % of control

O=CO.[Tl]
inactive: endpoint: mean survival time, dose: 5.0 mg/kg/injection, schedule: Q01DX001 (ip), vehicle: saline 104 % of control | endpoint: mean survival time, dose: 10.0 mg/kg/injection, schedule: Q01DX001 (ip), vehicle: saline 98 % of control | endpoint: mean survival time, dose: 20.0 mg/kg/injection, schedule: Q01DX001 (ip), vehicle: saline 95 % of control | endpoint: mean survival time, dose: 40.0 mg/kg/injection, schedule: Q01DX001 (ip), vehicle: saline 98 % of control | endpoint: mean survival time, dose: 80.0 mg/kg/injection, schedule: Q01DX001 (ip), vehicle: saline 104 % of control

CCC(CC)C(O)C(C)C(C)O (stereo unspecified)
inactive: [4] 91 % of control | [5] 91 % of control | [6] 91 % of control

CCCC[P+](C)(CC[P+](C)(c1ccccc1)c1ccccc1)c1ccccc1 (stereo unspecified)
inactive: endpoint: mean survival time, dose: 6.25 mg/kg/injection, schedule: Q04DX002 (ip), vehicle: saline 104 % of control | endpoint: mean survival time, dose: 12.5 mg/kg/injection, schedule: Q04DX002 (ip), vehicle: saline 89 % of control

O=C(C[n+]1cccc(C(=O)c2ccccc2)c1)c1ccccc1
inactive: endpoint: mean survival time, dose: 9.4 mg/kg/injection, schedule: Q01DX009 (ip), vehicle: saline 94 % of control | endpoint: mean survival time, dose: 18.8 mg/kg/injection, schedule: Q01DX009 (ip), vehicle: saline 94 % of control | endpoint: mean survival time, dose: 37.5 mg/kg/injection, schedule: Q01DX009 (ip), vehicle: saline 93 % of control | endpoint: mean survival time, dose: 37.5 mg/kg/injection, schedule: Q04DX003 (ip), vehicle: saline 96 % of control | endpoint: mean survival time, dose: 75.0 mg/kg/injection, schedule: Q01DX001 (ip), vehicle: saline 100 % of control | endpoint: mean survival time, dose: 75.0 mg/kg/injection, schedule: Q04DX003 (ip), vehicle: saline 94 % of control | endpoint: mean survival time, dose: 150.0 mg/kg/injection, schedule: Q01DX001 (ip), vehicle: saline 97 % of control

COc1ccc(CCN2COc3ccc4ccc(=O)oc4c3C2)cc1OC
inactive: [4] 92 % of control | [5] 97 % of control | [6] 97 % of control

C[C@]12CC[C@H]3[C@@H](CCC4=C[C@@H](OC5OCC(OC6OC(CO)C(O)C(O)C6O)C(O)C5O)CC[C@@]43C=O)[C@@]1(O)CCC2C1=CC(=O)OC1 (stereo partly specified)
inactive: endpoint: mean survival time, dose: 0.16 mg/kg/injection, schedule: Q01DX009 (ip), vehicle: Klucel (hydroxypropylcellulose) (HPC) 101 % of control | endpoint: mean survival time, dose: 0.31 mg/kg/injection, schedule: Q01DX009 (ip), vehicle: Klucel (hydroxypropylcellulose) (HPC) 101 % of control | endpoint: mean survival time, dose: 0.62 mg/kg/injection, schedule: Q01DX009 (ip), vehicle: Klucel (hydroxypropylcellulose) (HPC) 98 % of control | endpoint: mean survival time, dose: 0.63 mg/kg/injection, schedule: Q01DX009 (ip), vehicle: Klucel (hydroxypropylcellulose) (HPC) 102 % of control | endpoint: mean survival time, dose: 1.25 mg/kg/injection, schedule: Q01DX009 (ip), vehicle: Klucel (hydroxypropylcellulose) (HPC) 98 % of control and 107 % of control | endpoint: mean survival time, dose: 2.5 mg/kg/injection, schedule: Q01DX009 (ip), vehicle: Klucel (hydroxypropylcellulose) (HPC) 93 % of control and 95 % of control | endpoint: mean survival time, dose: 5.0 mg/kg/injection, schedule: Q01DX009 (ip), vehicle: Klucel (hydroxypropylcellulose) (HPC) 102 % of control | endpoint: mean survival time, dose: 10.0 mg/kg/injection, schedule: Q01DX009 (ip), vehicle: Klucel (hydroxypropylcellulose) (HPC) 108 % of control | endpoint: mean survival time, dose: 20.0 mg/kg/injection, schedule: Q01DX009 (ip), vehicle: Klucel (hydroxypropylcellulose) (HPC) 113 % of control | endpoint: mean survival time, dose: 156.0 micrograms/kg/injection, schedule: Q01DX009 (ip), vehicle: Klucel (hydroxypropylcellulose) (HPC) 104 % of control | endpoint: mean survival time, dose: 312.0 micrograms/kg/injection, schedule: Q01DX009 (ip), vehicle: Klucel (hydroxypropylcellulose) (HPC) 110 % of control | endpoint: mean survival time, dose: 625.0 micrograms/kg/injection, schedule: Q01DX009 (ip), vehicle: Klucel (hydroxypropylcellulose) (HPC) 100 % of control | endpoint: mean survival time, dose: 1250.0 micrograms/kg/injection, schedule: Q01DX009 (ip), vehicle: Klucel (hydroxypropylcellulose) (HPC) 92 % of control | endpoint: mean survival time, dose: 2500.0 micrograms/kg/injection, schedule: Q01DX009 (ip), vehicle: Klucel (hydroxypropylcellulose) (HPC) 101 % of control | endpoint: mean survival time, dose: 5000.0 micrograms/kg/injection, schedule: Q01DX009 (ip), vehicle: Klucel (hydroxypropylcellulose) (HPC) 101 % of control

Cc1cccc(-n2cc(C#N)c3c(C)cc(C)nc32)c1
inactive: [10] 106 % of control | [11] 101 % of control | [12] 97 % of control

C1CC[N-]CC1.C1CC[N-]CC1.C1CC[N-]CC1.[Cl][Rh]([Cl])[Cl]
inactive: [7] 99 % of control | [8] 99 % of control

COc1cc(/C=C/C=C/C(=O)N2CCCCC2)ccc1O
inactive: [7] 97 % of control | [8] 100 % of control | [9] 113 % of control

O=c1[nH]c(/C=C/C=C/c2ccccc2)c([N+](=O)[O-])c(=O)[nH]1
inactive: endpoint: mean survival time, dose: 50.0 mg/kg/injection, schedule: Q04DX002 (ip), vehicle: Klucel (hydroxypropylcellulose) (HPC) 98 % of control | endpoint: mean survival time, dose: 100.0 mg/kg/injection, schedule: Q04DX002 (ip), vehicle: Klucel (hydroxypropylcellulose) (HPC) 91 % of control and 94 % of control | endpoint: mean survival time, dose: 200.0 mg/kg/injection, schedule: Q04DX002 (ip), vehicle: Klucel (hydroxypropylcellulose) (HPC) 88 % of control and 94 % of control | endpoint: mean survival time, dose: 400.0 mg/kg/injection, schedule: Q04DX002 (ip), vehicle: Klucel (hydroxypropylcellulose) (HPC) 98 % of control

CC/C(I)=C(/CC)S(=O)(=O)c1ccc(C)cc1
inactive: [10] 95 % of control | [11] 103 % of control | [12] 94 % of control
